These are literature values, as cited in patent US9687466B2, “Use of dianhydrogalactitol and analogs and derivatives thereof to treat glioblastoma multiforme” (DELMAR PHARMACEUTICALS, INC., priority 0212, dated 2017).

For the data set the following is noted: cited from earlier work.

For the molecule `O[C@H]([C@H](O)[C@@H](O)CBr)[C@H](O)CBr` [dibromodulcitol], the “absorption by the oral route” value is “rapid and fairly complete”.
